Measurements as given in US6656676B2, “Silver halide color photographic material” (Konica Corporation, priority 2001, dated 2003).

Assay: pKa of the oil-soluble basic compound by alkalimetry
Format: physicochemical
Conditions: ethanol/water solution, alkalimetry at 25° C.
Experimental: As is commonly known, the pKa value refers to a logarithmic acid dissociation constant (Ka), i.e., pKa=−logKa, which is also called an acid electrolytic dissociation exponent. The pKa value of the oil-soluble basic compound can be determined by the alkalimetry, in the following manner. Thus, 50 mg pf a compound sample is dissolved in 40 ml of ethanol and after adding 10 ml of distilled water thereto, 3 ml of a 0.5 mol/l hydrochloric solution and 12 ml of ethanol are further added. The thus prepared solution is subjected to an alkalimetry at a temperature of 25° C. using an alkaline solution (which is comprised of 2.0 g of sodium hydroxide, 200 ml of distilled water and 800 ml of ethanol) and an automatic titration apparatus (Auto Titrator AUT-301, available from TOA electronics, Ltd.).

| pKa | Compound |
| --- | --- |
| 6.2 | CCCCCCCCCCCCCCOC(=O)CCN1CCN(CCC(=O)OCCCCCCCCCCCCCC)CC1 [OC-4] |
| 8.7 | CC1(C)CC(OC(=O)CCCCCCCCC(=O)OC2CC(C)(C)NC(C)(C)C2)CC(C)(C)N1 [Compd.-3] |
| 7.2 | CCCCCCCCCCCCN1CCN(CCCCCCCCCCCC)CC1 [OC-6] |
| 5 | CCCCCCCCCCCCCCOc1ccc(N2CCCCC2)cc1 [Compd.-2] |
